Laboratory results from the Biogen ADME set (Fang et al. 2023).
In brackets after ≈: the same amount, converted by molar mass.

Details: for aqueous solubility: pH 6.8

| SMILES | MDR1-MDCK efflux ratio | aqueous solubility [µg/mL] | intrinsic clearance, human liver microsomes [mL/min/kg] | intrinsic clearance, rat liver microsomes [mL/min/kg] | fraction unbound, human plasma | fraction unbound, rat plasma |
| --- | --- | --- | --- | --- | --- | --- |
| O=C(Nc1ccccc1)c1sc(N2CCOCC2)nc1-c1ccccc1 | 0.494 | 0.26 (≈ 0.711 µM) | – | – | – | – |
| Clc1cnc(Oc2ccc3cn[nH]c3c2)nc1 | – | – | 12.9 | 27.5 | – | – |
| Cc1ccc(N2CCN(C(=O)c3c(C)nc4sccn34)CC2=O)cc1 | 6.72 | 61.6 (≈ 174 µM) | ≤ 4.74 | 32.3 | – | – |
| Cc1nc(-c2ccccc2)ccc1C(=O)NC1CCCC1 | – | 41 (≈ 146 µM) | ≤ 4.74 | 319 | – | – |
| CC(=O)N1CCN(C(=O)CS(=O)(=O)C23CC4CC(CC(C4)C2)C3)CC1 | 10.3 | – | ≤ 4.74 | 298 | – | – |
| Cc1cc(CCCC(=O)NC[C@H]2CC[C@H](c3ccc(C(N)=O)c(C)n3)CC2)ccc1F | 33.3 | 3.18 (≈ 7.47 µM) | 214 | 808 | – | – |
| CC(=O)N1CCN(c2nc(C(F)(F)F)nc3sc(C)c(C)c23)CC1 | 1.22 | 51.3 (≈ 143 µM) | 43 | 217 | 0.0136 | 0.0421 |
| COc1cccc(Cc2cnc(N)s2)c1 | 0.671 | – | 17.8 | 281 | – | – |
| OC(Cn1cncn1)(Cn1cncn1)c1ccc(F)cc1F | 5.25 | 42.9 (≈ 140 µM) | ≤ 4.74 | ≤ 10.7 | – | – |
| CN(C)C(=O)c1sc2nc(C3(C)CCN(c4ncccn4)CC3)ccc2c1N | 1.25 | 65.8 (≈ 166 µM) | 32 | 111 | – | – |
| N#Cc1ccccc1CN1C(=O)CCC1=O | – | – | ≤ 4.74 | 20.4 | – | – |
| C#CCOc1ccc(OC)cc1C(N)=O | 0.717 | – | 13.8 | 73.3 | – | – |
| CC(C)C[C@@H](C(N)=O)n1ccnc1-c1cccc2ccccc12 | 47.6 | 32.6 (≈ 106 µM) | 329 | 1410 | – | – |
| Cc1ccc(-n2ccnc2-c2ccoc2)c2cccnc12 | 0.946 | 19.9 (≈ 72.1 µM) | 55.1 | 579 | – | – |
| COc1cc(CN2CCCNCC2)cc2c1OCO2 | 8.38 | – | 5.17 | 72.9 | – | – |
| COCc1noc(-c2ccc(-c3cc(C)cc(C)c3)nc2)n1 | 0.295 | 0.21 (≈ 0.711 µM) | – | – | – | – |
| CC(C)(C)c1ccc(C(=O)Nc2cn3cc(-n4ccnc4)ccc3n2)cc1 | 2.85 | 2.75 (≈ 7.65 µM) | 60.4 | 25.6 | – | – |
| COc1ccncc1NCc1cscn1 | – | – | ≤ 4.74 | 25.4 | – | – |
| CS(=O)(=O)NCCc1ccc2c(c1)OCCO2 | – | 32.2 (≈ 125 µM) | – | – | – | – |
| CON(C)C(=O)c1cccc2c(C)c(C)[nH]c12 | 0.476 | 31.5 (≈ 136 µM) | 113 | 196 | – | – |
| CCc1nnc(N2CCCO2)c(C#N)c1CC | 0.746 | – | 16.6 | 147 | – | – |
| CCN1CCN(S(=O)(=O)Cc2ccc(Cl)c(Cl)c2)CC1 | 0.41 | 25.7 (≈ 76.2 µM) | 82.8 | 1440 | 0.177 | 0.118 |
| CCCn1cc(CN2CCC(c3nc(N(C)C)no3)CC2)cn1 | 1.14 | – | 21 | 146 | – | – |
| CCNC(=O)N1CCC(c2nc(-c3ccccc3)no2)CC1 | 0.841 | 52.8 (≈ 176 µM) | ≤ 4.74 | 44.8 | – | – |
| NS(=O)(=O)C#Cc1ccccc1 | – | – | 10.6 | ≤ 10.7 | – | – |
| Cc1cc(C)n(CCNC(=O)NC2CCOCC2)n1 | 28.3 | 47.5 (≈ 178 µM) | ≤ 4.74 | ≤ 10.7 | – | – |
| COc1ccc(C(=O)N2CCN(C(=O)/C=C/c3ccc(Br)cc3)CC2)cc1 | 0.858 | – | – | – | – | – |
| CCOCC(=O)N1CCC2(CCc3ccccc3O2)CC1 | 0.732 | 34.1 (≈ 118 µM) | 10.3 | 818 | – | – |
| O=C(Nc1ccc2ccccc2n1)c1ccc(N2CCOC2=O)cc1 | 0.594 | 2.85 (≈ 8.55 µM) | 5.17 | 45.6 | 0.0281 | 0.0117 |
